Earlier results as cited in US6461634B1, “Food-based delivery of HGH-stimulating and other nutritional supplements” (priority 1999, dated 2002).

Test system: HGH
Conditions: 5 mg melatonin taken orally one hour prior to vigorous exercise, versus vigorous exercise alone; healthy adult male subjects

COc1ccc2[nH]cc(CCNC(C)=O)c2c1 [melatonin]
increase in HGH resulting from vigorous exercise: triple
